PMC2606922 (Molecular pharmacology, 2008)

Assays:
[1] = molecular target: adult mouse muscle nAChR, (α1)2β1εδ (Mus musculus, UniProt P02716+P04756+P20782); test: outside-out patch clamp, relative peak current; type: biochemical; conditions: 300 μM ACh, -50 mV, 22-25°C, pH 7.3
[2] = molecular target: adult mouse receptors with two δ-subunits (lacking the ε-subunit) (Mus musculus, UniProt P02716+P04756); test: outside-out patch clamp, relative peak current; type: biochemical; conditions: 300 μM ACh, -50 mV, 22-25°C, pH 7.3
adult mouse receptors with two δ-subunits (lacking the ε-subunit), sequence (P04756 21-457): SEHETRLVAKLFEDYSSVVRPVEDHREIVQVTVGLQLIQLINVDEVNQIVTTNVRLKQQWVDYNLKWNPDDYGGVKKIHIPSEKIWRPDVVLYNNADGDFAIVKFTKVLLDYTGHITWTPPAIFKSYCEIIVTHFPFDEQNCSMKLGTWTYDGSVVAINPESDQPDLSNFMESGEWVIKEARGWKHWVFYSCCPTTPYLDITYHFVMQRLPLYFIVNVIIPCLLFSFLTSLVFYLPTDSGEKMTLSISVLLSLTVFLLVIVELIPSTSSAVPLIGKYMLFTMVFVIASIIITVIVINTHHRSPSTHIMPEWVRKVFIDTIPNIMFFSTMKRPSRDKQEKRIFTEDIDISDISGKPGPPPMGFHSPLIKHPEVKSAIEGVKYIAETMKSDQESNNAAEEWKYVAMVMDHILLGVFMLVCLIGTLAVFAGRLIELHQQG
adult mouse receptors with two δ-subunits (lacking the ε-subunit), sequence (P02716 25-520): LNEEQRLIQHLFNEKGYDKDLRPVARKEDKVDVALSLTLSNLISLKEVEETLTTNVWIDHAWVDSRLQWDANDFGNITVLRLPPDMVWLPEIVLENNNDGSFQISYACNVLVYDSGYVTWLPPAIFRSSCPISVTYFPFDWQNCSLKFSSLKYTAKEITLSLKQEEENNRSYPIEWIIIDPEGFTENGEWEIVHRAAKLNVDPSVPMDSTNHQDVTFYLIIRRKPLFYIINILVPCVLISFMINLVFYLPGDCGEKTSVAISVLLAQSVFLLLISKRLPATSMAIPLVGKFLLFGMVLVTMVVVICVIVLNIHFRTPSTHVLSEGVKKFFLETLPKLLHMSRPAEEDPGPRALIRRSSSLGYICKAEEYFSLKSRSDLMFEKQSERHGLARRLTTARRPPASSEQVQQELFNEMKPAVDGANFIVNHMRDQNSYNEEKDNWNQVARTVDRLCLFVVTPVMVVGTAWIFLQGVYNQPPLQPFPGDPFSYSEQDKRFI
adult mouse receptors with two δ-subunits (lacking the ε-subunit), sequence (P09690 24-501 partner): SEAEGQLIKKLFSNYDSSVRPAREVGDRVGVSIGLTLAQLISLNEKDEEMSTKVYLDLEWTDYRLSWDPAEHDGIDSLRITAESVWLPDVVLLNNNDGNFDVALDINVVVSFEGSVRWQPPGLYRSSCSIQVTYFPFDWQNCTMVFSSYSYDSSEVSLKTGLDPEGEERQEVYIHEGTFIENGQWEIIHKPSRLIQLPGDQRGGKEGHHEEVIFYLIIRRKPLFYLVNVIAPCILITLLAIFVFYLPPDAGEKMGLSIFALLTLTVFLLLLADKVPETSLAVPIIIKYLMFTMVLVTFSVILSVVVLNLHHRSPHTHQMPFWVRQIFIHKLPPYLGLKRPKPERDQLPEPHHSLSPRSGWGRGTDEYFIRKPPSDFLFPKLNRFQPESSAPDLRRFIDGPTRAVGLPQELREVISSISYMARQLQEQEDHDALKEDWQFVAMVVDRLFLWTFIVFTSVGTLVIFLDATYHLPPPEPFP

adult mouse muscle nAChR, (α1)2β1εδ, sequence (P04756 21-457): as the sequence (P04756 21-457) above
adult mouse muscle nAChR, (α1)2β1εδ, sequence (P20782 21-493): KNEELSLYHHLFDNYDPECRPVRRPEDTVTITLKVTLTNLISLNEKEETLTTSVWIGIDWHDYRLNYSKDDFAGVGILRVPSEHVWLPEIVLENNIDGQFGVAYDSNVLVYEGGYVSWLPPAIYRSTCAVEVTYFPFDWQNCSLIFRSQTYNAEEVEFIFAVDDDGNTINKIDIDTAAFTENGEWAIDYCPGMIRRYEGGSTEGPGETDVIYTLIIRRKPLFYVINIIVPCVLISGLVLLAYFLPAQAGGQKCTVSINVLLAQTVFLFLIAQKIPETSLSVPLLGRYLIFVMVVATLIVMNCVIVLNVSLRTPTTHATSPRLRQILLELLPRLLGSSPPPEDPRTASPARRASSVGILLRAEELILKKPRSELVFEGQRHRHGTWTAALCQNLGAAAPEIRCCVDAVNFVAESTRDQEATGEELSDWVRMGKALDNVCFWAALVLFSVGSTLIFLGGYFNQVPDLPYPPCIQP
adult mouse muscle nAChR, (α1)2β1εδ, sequence (P02716 25-520): as the sequence (P02716 25-520) above
adult mouse muscle nAChR, (α1)2β1εδ, sequence (P09690 24-501 partner): as the sequence (P09690 24-501 partner) above

C=CC[N+]1([C@H]2C[C@H]3[C@@H]4CC[C@H]5C[C@H](O)[C@@H](N6CCOCC6)C[C@]5(C)[C@H]4CC[C@]3(C)[C@H]2OC(C)=O)CCCC1 [rocuronium]
current relative to control at 40 nM [1]: 0.32 ± 0.05 | current relative to control at 40 nM [2]: 0.16 ± 0.01
